Measurements reported in US8835466B2, “Synthesis and uses of pyroglutamic acid derivatives” (Prodimed, S.A., priority 2006, dated 2014).
Values joined by “and” are separate entries in the source; they are usually repeats but may differ in a detail not shown here. Equal entries are not always repeated.

What was measured:
[1] = system: CD11b and Ly6G positive leukocyte populations; assay: Phenotype leukocyte analysis by flow cytometry (CD11b, Ly6G) in peripheral blood (Example 16); type: in vivo, Balb/c mice
Description: This Example was carried out with the aim at assessing eventual differences in the leukocyte population percentage among the treated mice by flow cytometry. The counts were carried out by using a flow cytometer after labelling membrane proteins (CD11B and Ly6G) with specific antibodies to said proteins. CD11B (also known as Mac-1) marker is expressed in monocyte populations whereas Ly6G (also known as GR-1) is expressed in granulocyte populations. Both markers (CD11b and Ly6G) are expressed in neutrophile populations.
Isomer 4 (compound 9d) at 65 μg/mL in sterile physiological saline.
Equipment Laminar flood hood, Flow cytometer, Adjustable pipettes, Sterile syringes, Sterile needles, EDTA stelile tubes, Plastic tubes. Reagents • Anaesthetic solution • Sterile PBS (Sigma, St. Louis, Mo., USA) • Physiological saline (Grifols, Barcelona, Spain) • Rat anti-mouse CD11b-PE (Beckman Coulter, Fullerton, Calif., USA) • Rat anti-mouse Ly6G-FITC (Beckman Coulter, Fullerton, Calif., USA) • Optylise C (Beckman Coulter, Fullerton, Calif., USA) Dose, Vehicle, Route and Volume Administration Dose Isomer 4 (compound 9d) was tested at the dose levels of 250 ng administered on days 0, and 7. Vehicle The vehicle in which Isomer 4 was diluted is physiological saline. Administration Route and Volume
The treatments were given by intraperitoneal route. The volume inoculated was 200 μl/animal.
Balb/c mice were distributed into 2 experimental groups:
Three days after the last dose of the treatment, murine blood was isolated. It was obtained directly from intracardiac punction. Previously, mice were anesthetized intramuscularly.
Blood was mixed with the monoclonal antibodies described above.
After 20 minutes of incubation, Optylise C solution was added into the samples to lise erythrocytes population.
Finally, samples were diluted ½ with 1× sterile PBS and checked by flow cytometry.
Percentages of each population analyzed were expressed as single values and as the mean±SD from each experimental group.

[2] = system: Mm5MT (Breast tumour); assay: Effect of isomer 4 (9d) on tumour growth, Mm5MT (Example 10); type: in vivo; details: C3H/HeN mice, 250 ng/mice i.p. days 6, 7 and 14
Description: (§1) The following assays were made in order to check the effect of isomer 4 (9d) on different tumours following methods and materials analogous to those used in examples 8 and 9, In all cases sterile physiologic saline (Grifols, Barcelona, Spain) was used as placebo. Isomer 4 (9d) was tested at the dose levels indicated in Table 13 on days 6, 7 and 14 after tumour inoculation. In all cases the vehicle was physiologic saline and the treatments were given by intraperitoneal route. The volume inoculated was 0.2 mL/animal.

[3] = system: KLN 205 (lung carcinoma); assay: Effect of isomer 4 (9d) on tumour growth, KLN 205 (Example 10); type: in vivo; details: KLN 205 (high dose lung carcinoma); DBA/2NCrI mice; 260 ng/mice i.p. days 6, 7 and 14
Description: as §1

[4] = Balb/C mice, two doses (once per week) 250 ng i.p., flow cytometry three days after the last dose
[5] = group mean, n = 4, 250 ng i.p. on days 0 and 7, blood three days after the last dose
[6] = individual mice, 250 ng i.p. on days 0 and 7, blood three days after the last dose, listed as 9d

For Br.N[C@]1(C[n+]2ccccc2)C[C@H](C(=O)O)NC1=O.[Br-] (single isomer, unassigned; isomer 4) [isomer 4, 3S,5R-1-(3-Amino-5-carboxy-2-oxopyrrolidin-3-ylmethyl)pyridinium bromide hidrobromide], the “CD11b positive cells in peripheral blood compared with control mice” value [1, 4] was “increment”, the “CD11b+Ly6G positive cells in peripheral blood compared with control mice” value [1, 4] was “increment” and the “Ly6G positive cells in peripheral blood compared with control mice” value [1, 4] was “increment”. For the same compound, the “CD11b+ cells, PBL (Peripheral Blood), flow cytometry, Media” value [1, 5] was 36.95%, the “CD11b+Ly6G+ cells, PBL (Peripheral Blood), flow cytometry, Media” value [1, 5] was 31.05% and the “Ly6G+ cells, PBL (Peripheral Blood), flow cytometry, Media” value [1, 5] was 34.775%. For the same compound, the “CD11b+ cells, PBL (Peripheral Blood), flow cytometry” value [1, 6] was 35.5% and 44% and 35.4% and 32.9%, the “CD11b+Ly6G+ cells, PBL (Peripheral Blood), flow cytometry” value [1, 6] was 29.7% and 32.3% and 28.5% and 33.7% and the “Ly6G+ cells, PBL (Peripheral Blood), flow cytometry” value [1, 6] was 27% and 37.6% and 33.3% and 41.2%. The “Tumour growth inhibition?” value [2] was “YES” and the “Tumour growth inhibition?” value [3] was “YES”.
